Laboratory results as given in US6589956B2, “Benzenesulphonamide compounds” (Les Laboratoires Servier, priority 2001, dated 2003).

Columns and labels:
[1] = system: platelets in human platelet-rich plasma (5-hydroxytryptamine-induced aggregation); assay: Platelet aggregation in man induced by 5-hydroxytryptamine; type: cell-based; conditions: human PRP, 5-hydroxytryptamine 10 μM in the presence of 0.3 μM adenosine diphosphate and 1 μM adrenalin, read-out: IC50, inhibition of platelet aggregation produced by 5-hydroxytryptamine
Description: (§1) Venous blood is obtained from human volunteers who have not taken aspirin for at least 14 days prior to the experiment. The blood is removed over sodium citrate (0.109 M) (1 vol. of citrate over 9 vol. of blood). Platelet-rich plasma (PRP) is obtained by centrifugation (20° C.) at 200 g for 10 minutes. The number of platelets is on average. 250000 PL/mm^3. The PRP is stored at room temperature until the test and is used within 2 hours of having been taken. The TXA2 agonist U46619 is used at a concentration of 1 μM and 5-hydroxytryptamine is used at a concentration of 10 μM, the latter in the presence of 0.3 μM adenosine diphosphate and 1 μM adrenalin.

[2] = system: platelets in human platelet-rich plasma (TXA2 agonist U46619-induced aggregation); assay: Platelet aggregation in man induced by the TXA2 agonist U46619; type: cell-based; conditions: human PRP, U46619 1 μM, read-out: IC50, inhibition of platelet aggregation induced by the TXA2 agonist
Description: as §1

IC50 [1]: 3000 nM
IC50 [2]: 1500 nM
SMILES: O=C(O)CCn1cc(CCN2CCN(c3nsc4ccccc34)CC2)c2cc(CCNS(=O)(=O)c3ccc(Cl)cc3)ccc21 [Example 6, 3-[3-{2-[4-(1,2-Benzisothiazol-3-yl)-1-piperazinyl]ethyl}-5-(2-{[(4-chlorophenyl)sulphonyl]amino}ethyl)-1H-indol-1-yl]propanoic Acid]
